Results from patent US11214772B2, “Production method for retinal tissue” (SUMITOMO DAINIPPON PHARMA CO., LTD., priority 2014, dated 2022).

Test system: human iPS cells (201B7 strain)
Test: Bright field observation of cell aggregates in suspension culture (neuroepithelium formation)
Assay type: cell-based
Settings: day 18
Description: The thus-prepared subconfluent human iPS cells were treated with the cell dispersion solution by using TrypLE Select (manufactured by Life Technologies), further dispersed into single cells by pipetting operation, and the above human iPS cells dispersed into single cells were suspended in 100 μl of a serum-free medium at 1.2×10^4 cells per well of a non-cell-adhesive 96-well culture plate (PrimeSurface 96V-bottom plate, SUMITOMO BAKELITE). Thereafter, the cells were subjected to suspension culturing at 37° C., 5% CO2. As the serum-free medium (gfCDM+KSR) therefor, a serum-free medium which is a 1:1 mixture of F-12 medium and IMDM medium supplemented with 10% KSR, 450 μM 1-monothioglycerol, 1× Chemically defined lipid concentrate was used. At the time of the start of suspension culturing (day 0 after the start of suspension culturing, start of step 2), a serum-free medium supplemented with SAG (final concentration […]) as a Shh signal transduction pathway activating substance and Y27632 (20 μM) was used (FIG. 5A-D). By day 2 after the start of suspension culturing, cell aggregates were formed. On day 3 after the start of suspension culturing, a serum-free medium (50 μl) free of Y27632 and SAG was added. […] The thus-prepared cell aggregates were subjected to bright field observation under an inverted microscope (BIOREVO manufactured by KEYENCE) on day 18 after the start of suspension culturing.
The thus-prepared subconfluent human iPS cells were treated with the cell dispersion solution by using TrypLE Select (manufactured by Life Technologies), further dispersed into single cells by pipetting operation, and the above human iPS cells dispersed into single cells were suspended in 100 μl of a serum-free medium at 1.0×10^4 cells per well of a non-cell-adhesive 96-well culture plate (SUMILON SPHEROID V-bottom plate PrimeSurface 96V-bottom plate, SUMITOMO BAKELITE). Thereafter, the cells were subjected to suspension culturing at 37° C., 5% CO2. As the serum-free medium (gfCDM+KSR) therefor, a serum-free medium which is a 1:1 mixture of F-12 medium and IMDM medium supplemented with 10% KSR, 450 μM 1-monothioglycerol, 1× Chemically defined lipid concentrate was used. At the time of the start of suspension culturing (day 0 after the start of suspension culturing, start of step 2), the above serum-free medium supplemented with Y27632 (final concentration 20 μM) and further supplemented with SAG (final concentration 30 nM), Purmorphamine (manufactured by Wako, final concentration 0.2 μM), or human recombinant Shh (manufactured by R&D, Recombinant N-Terminus, final concentration 50 ng/ml) as a Shh signal transduction pathway activating substance was used (FIG. 8). On day 2 after the start of suspension culturing, a cell aggregates were formed. […]

CNC1CCC(N(Cc2cccc(-c3ccncc3)c2)C(=O)c2sc3ccccc3c2Cl)CC1 (centres unmarked) [SAG]
neuroepithelium formation (bright field) (Example 3, Essential 8, SAG 300 μM day 0, with or without BMP4 1.5 nM day 6): neuroepithelium was formed
neuroepithelium formation (bright field) (Example 6, StemFit, SAG 30 nM, Purmorphamine 0.2 μM or human recombinant Shh 50 ng/ml day 0, BMP4 1.5 nM day 3): neuroepithelium was formed
